Patent US5681823A, “P^1, P^4 -dithio-P^2 -P^3 -monochloromethylene 5', 5'"-diadenosine P^1, P^4 -tetraphosphate as antithrombotic agent” (PRP Inc., priority 1996, dated 1997)
“Also recorded” adds a separate entry of the source. Read-outs that look alike come from different tables or passages of the source. Values belong to the molecule of their own block, whether it stands above or below them.

Experiments:
[1] = in words, cited from earlier work; for side effects / bleeding risk: clinical
[2] = tested on: ADP-induced platelet aggregation; assay: ADP-induced platelet aggregation in platelet-rich plasma (turbidimetric method of Born, aggregometer); assay type: cell-based, human; details: ADP-induced aggregation, PRP, mean of three (*) or two determinations
Experimental: (§1) Unless otherwise provided below, the experimental procedures were performed according to the procedures provided in U.S. Pat. No. 5,049.550 (Zamecnik '550), the entire contents of which are incorporated herein by reference. Some alternative procedures (e.g., release reaction, PF3 assays) and a number of additional studies also are provided (e.g., cytoplasmic calcium mobilization, fibrinogen binding site, agonists other than ADP, platelet cAMP and distribution of CHCl-AP4 A into blood components). Blood was collected in a 0.1 volume of 3.8% sodium citrate from healthy human volunteers who had abstained from antiplatelet agents for at least 10 days. Platelet rich plasma (PRP) was separated by a gradual centrifugation and adjusted to 3.3×10^8 platelets per ml plasma. PRP has been utilized in the Examples unless otherwise stated.
An initial screening was performed for inhibitory effects of several agents (including, e.g., thio-CHCl-AP4 A and CHCl-AP4 A as reference agent)) on platelet aggregation induced by ADP. Platelet aggregation was measured with platelet-rich plasma (PKP) by the turbidimetric method of Born (J. Physiol. 162:67, 1962) in an aggregometer (Chrono-log, Model 530 VS). Platelet aggregation induced by 5 μM ADP in the absence or presence of 5 μM agents was examined. […] The IC50 value of the CHCl-AP4 A (reference agent) was consistent with the value reported previously (P. Zamecnik et al., Proc. Nat'l. Acad. Sci. USA 89:2370-2373 (1992)).

[3] = tested on: ADP-induced platelet aggregation; details: Zamecnik '550 Table 3; cited from earlier work
[4] = cited from earlier work
[5] = tested on: ADP-induced platelet aggregation; details: cited from earlier work
[6] = tested on: ADP-induced platelet aggregation; thrombus formation; details: in words; cited from earlier work
[7] = cited from earlier work; remark: listed apart in the source
[8] = tested on: Cytoplasmic Calcium Ion (Ca^++) Mobilization in platelets; assay: Cytoplasmic calcium ion mobilization in platelets (Indo-1, flow cytometer); assay type: cell-based, human; details: unstimulated peak 133
Experimental: as §1
An increment of cytoplasmic Ca^++ in the platelets represents an activated state. Indo-1 acetomethyl ester (Indo-1) commonly has been utilized as the reagent to detect intracellular free Ca^++. Indo-1 reacts with Ca^++ and produces fluorescence which can be monitored in a dual wavelength (408/485) flow cytometer (Coulter EPIC Systems). Platelets were incubated with Indo-1 at 37° C. for 45 min. Excess Indo-1 in the medium was removed by gel-filtration method. Indo-1-loaded platelets were then activated by 6.7 μM ADP in the absence or presence of thio-CHCl-AP4 A (3.3 μM) or CHCl-AP4 A (6.7 μM). Fluorescence intensity of the platelets was monitored and plotted against platelet number. The histograms generated from the plots were analyzed. Unstimulated platelets registered fluorescence intensity (FI) between 42 and 250 with a peak at 133 (base line control).

platelet cAMP level [9] = assay: Level of intracellular platelet cAMP (etheno-cAMP, HPLC); assay type: cell-based, human; details: forskolin 101 μM as printed, positive control, in words
platelet cAMP level [10] = assay: as above; assay type: cell-based, human; details: 10 μM agent, 37° C., 5 min; control 31.6
Experimental: as §1
The inhibitory effect of cAMP on platelet aggregation has been known as a counteraction of calcium ion mobilization. Accordingly, the inhibitory effects of the agents with respect to a cAMP mediated mechanism was tested. PRP was incubated with saline (control), agents (at 20 μM and 100 μM), or forskolin (10 μM) at 37° C. for 5 min. After incubation, extracts were made using Ba(OH)2 and ZnSO4. Cyclic AMP in the extracts was converted into the etheno-cAMP derivative, and the levels were estimated by HPLC using a fluorescence detector (W. Wojcik et al., J. Cyclic Nucleotide Res. 7:27-35 (1981)). The level of cAMP in an unknown extract was determined by extrapolation from a standard graph. A linear relationship between the cAMP level in the extracted samples and fluorescence detection was observed. […] However, this increase may not be a specific effect. Although adenosine contamination in the tested AP4 A agents was not detected, it is possible that either cellular adenosine nucleotide metabolic products or contaminated adenosine in the tested agents may be responsible for the elevated cAMP level.

Molecule: Clc1ccccc1CN1CCc2sccc2C1 [ticlopidine]
side effects / bleeding risk [1]: substantial side effects

Molecule: ReoPro: newer drugs, such as ReoPro (7E3)
side effects / bleeding risk [1]: increased risk of major bleeding

IC50 ([2]; read-out: IC50): > 100 µM
Molecule: Nc1ncnc2c1ncn2[C@H]1C[C@H](O)[C@@H](COP(=O)(O)OP(=O)(O)C(Cl)P(=O)(O)OP(=O)(O)OC[C@H]2O[C@@H](n3cnc4c(N)ncnc43)C[C@@H]2O)O1 (some centres unmarked) [CHCl-dAP4 dA]

Molecule: CC(=O)Oc1ccccc1C(=O)O [aspirin]
clinical effectiveness [1]: useful but limited effectiveness

Molecule: Nc1ncnc2c1ncn2[C@H]1C[C@H](O)[C@@H](COP(O)(=S)OP(=O)(O)C(Cl)P(=O)(O)OP(O)(=S)OC[C@H]2O[C@@H](n3cnc4c(N)ncnc43)C[C@@H]2O)O1 (some centres unmarked) [Thio-CHCl-dAP4 dA]
IC50 [2]: 9.22 µM

Molecule: Nc1ncnc2c1ncn2[C@@H]1O[C@H](COP(=O)(O)OP(=O)(O)C(F)P(=O)(O)OP(=O)(O)OC[C@H]2O[C@@H](n3cnc4c(N)ncnc43)[C@H](O)[C@@H]2O)[C@@H](O)[C@H]1O (some centres unmarked) [AppCHFppA]
ID10 [3]: 4 µM

Molecule: Nc1ncnc2c1ncn2[C@@H]1O[C@H](COP(=O)(O)OP(=O)(O)OP(=O)(O)OP(=O)(O)OC[C@H]2O[C@@H](n3cnc4c(N)ncnc43)[C@H](O)[C@@H]2O)[C@@H](O)[C@H]1O [AP4 A, diadenosine 5', 5'"-P^1,P^4 -tetraphosphate]
AP4 A degraded in plasma ([4]; ^32 P-labeled, normal plasma, ten minutes, 37° C., 10 min): 90% | degradation products in plasma [4]: degraded to AMP and ATP (adenosine triphosphate) | dispersion of aggregated platelets ([5]; even when aggregation has progressed to 60% completion): immediate dispersion of aggregated platelets | effect on ADP-induced platelet aggregation ([5]; in vitro, in words): competitive inhibitor; also recorded: competitively inhibits | effect on ADP-induced platelet aggregation on administration to a mammal [6]: inhibit markedly ADP-induced platelet aggregation | effect on thrombus formation on administration to a mammal [6]: inhibit thrombus formation | half-life in rabbit blood ([7]; in vivo and ex vivo): short half-life | ex vivo decay compared to in vivo clearance ([7]; rabbit blood): significantly longer

Molecule: CNc1ccc2oc(C[C@H]3O[C@@]4(CC[C@H]3C)O[C@H]([C@H](C)C(=O)c3ccc[nH]3)[C@H](C)C[C@H]4C)nc2c1C(=O)O [A23187]
fluorescence intensity (FI), peak ([8]; 2 μM A23187, positive control): 530

Molecule: Nc1ncnc2c1ncn2[C@@H]1O[C@H](COP(=O)(O)OP(=O)(O)OP(=O)(O)OC[C@H]2O[C@@H](n3cnc4c(N)ncnc43)[C@H](O)[C@@H]2O)[C@@H](O)[C@H]1O [AP3 A, diadenosine 5', 5'"-p^1, p^3 -triphosphate]
degradation products in plasma [4]: hydrolyzed in plasma to AMP (adenosine monophosphate) and ADP (adenosine diphosphate) | effect on platelet aggregation ([5]; AP3 A, in words): gradual aggregation of platelets

Molecule: Nc1ncnc2c1ncn2[C@@H]1O[C@H](COP(=O)(O)OP(=O)(O)O)[C@@H](O)[C@H]1O [ADP, adenosine diphosphate]
fluorescence intensity (FI), peak ([8]; 6.7 μM ADP, no agent): 158

Molecule: C=C[C@@]1(C)CC(=O)[C@]2(O)[C@@]3(C)[C@@H](O)CCC(C)(C)[C@@H]3[C@H](O)[C@H](OC(C)=O)[C@@]2(C)O1 [Forskolin]
effect on platelet cAMP (platelet cAMP level [9]): marked increase | platelet cAMP level (platelet cAMP level [10]): 124.4 nM
